Target: T1, human recombinant type II PLA2 (=synovial PLA2) (Homo sapiens, UniProt P14555)
T1 sequence (P14555 21-144): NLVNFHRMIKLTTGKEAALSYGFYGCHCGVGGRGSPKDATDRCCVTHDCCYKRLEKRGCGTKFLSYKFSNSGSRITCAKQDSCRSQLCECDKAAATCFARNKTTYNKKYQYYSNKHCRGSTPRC
Experiment: Inhibition of PLA2 activity (sPLA2 enzyme activity, in vitro)
Type: biochemical
Conditions: means of 3 experiments (duplicate determinations); for inhibition at 0.1 µg/mL: concentration 0.1 μg/ml; for inhibition at 1 µg/mL: concentration 1 μg/ml; for inhibition at 10 µg/mL: concentration 10 μg/ml
Text: Inhibition of PLA2 activity
The human recombinant type II PLA2 (=synovial PLA2) as a typical representative of a PLA2 was used for the test.
This documents the superiority of the new sPLA2 inhibitors compared to a cyclooxygenase inhibitor.

Structure (SMILES) | inhibition at 0.1 µg/mL [%] | inhibition at 1 µg/mL [%] | inhibition at 10 µg/mL [%]
CCOC(=O)c1cc(=O)c2c3c(ccc2o1)C(=O)c1ccc(O)cc1CO3 [Ex.2a), 7,12-dihydro-10-hydroxy-1H-4,13-dioxabenzo[4,5]cyclohepta[1,2-a]-naphthalene-1,7-dione-3-carboxylic acid-ethyl ester] | 28 | 52 | 61
CCOC(=O)c1cc(=O)c2cc3c(cc2o1)OCc1cc(O)ccc1C3=O [Ex.2c), 7,13-dihydro-2-hydroxy-5H-10,12-dioxabenzo[4,5]cyclohepta[1,2-b]-naphthalen-5,7-dione-9-carboxylic acid ethyl ester] | 12 | 73 | 78
CCCCCCCCOc1ccc2c(c1)COc1c(cc3c(=O)cc(C(=O)OCC)oc3c1CCC)C2=O [Ex.4a), 7,13-dihydro-2-octyloxy-11-propyl-5H-10,12-dioxabenzo-[4,5]cyclo-hepta[1,2-b]naphthalen-5,7-dione-9-carboxylic acid ethyl ester] | 16 | 17 | 49
COc1ccc2c(c1)c(CC(=O)O)c(C)n2C(=O)c1ccc(Cl)cc1 [Indomethacin, reference compound] |  | 0 | 
